Test results published in patent US8148531B2 (Chroma Therapeutics Ltd., priority 2005, dated 2012).
pIC50: −log10 of the molar value. Counter-ions that a name gives are not always drawn.

Experiments:
Assay type in all cases: cell-based
U937 cell line = test: Cell inhibition assay (SRB cell viability), U937; settings: Homo sapiens, U-937, IC50 range class, 72 h, read-out: Inhibitor Activity vs U937 cell line
Procedure: (§1) The corresponding cancer cell lines (U937, HCT 116 and HUT) growing in log phase were harvested and seeded at 1000 cells/well (200 ul final volume) into 96-well tissue culture plates. Following 24 h of cell growth cells were treated with compounds (final concentration of 20 uM). Plates were then re-incubated for a further 72 h before a sulphorhodamine B (SRB) cell viability assay was conducted according to Skehan 1990 J Natl Canc Inst 82, 1107-1112.
(§2) Data were expressed as a percentage inhibition of the control, measured in the absence of inhibitor, as follows: — % inhibition=100−((S^i/S^o)×100) where S^i is the signal in the presence of inhibitor and S^o is the signal in the presence of DMSO.
(§3) IC50 values were determined by non-linear regression analysis, after fitting the results of eight data points to the equation for sigmoidal dose response with variable slope (% activity against log concentration of compound), using Graphpad Prism software.

HCT 116 cell line = test: Cell inhibition assay (SRB cell viability), HCT 116; settings: Homo sapiens, IC50 range class, 72 h, read-out: Inhibitor Activity vs HCT 116 cell line
Procedure: as §1, §2, §3

HUT cell line = test: Cell inhibition assay (SRB cell viability), HUT; settings: IC50 range class, 72 h, read-out: Inhibitor Activity vs HUT cell line
Procedure: as §1, §2, §3

Q: With `COc1cc2c(Oc3cccc(F)c3)ccnc2cc1OCC[C@H](N)C(=O)OC1CCCC1` [Example 5, (S)-2-Amino-4-[4-(3-fluoro-phenoxy)-6-methoxy-quinolin-7-yloxy]-butyric acid cyclopentyl ester] as the compound, how does the pIC50 (U937 cell line) read?
A: 5.30 to 6.00

Q: What about the pIC50 (HCT 116 cell line) of the same compound?
A: < 5.30

Q: And the pIC50 (HUT cell line)?
A: 5.30 to 6.00

Q: What does the source list for `COc1cc2c(Oc3ccccc3)ccnc2cc1OCC[C@H](N)C(=O)OC1CCCC1` [Example 7, (S)-2-Amino-4-(6-methoxy-4-phenoxy-quinolin-7-yloxy)-butyric acid cyclopentyl ester]?
A: pIC50 (U937 cell line): 5.30 to 6.00; pIC50 (HCT 116 cell line): < 5.30; pIC50 (HUT cell line): 5.30 to 6.00

Q: How did the pIC50 (U937 cell line) turn out when `COc1ccc(Oc2ccnc3cc(OCC[C@H](N)C(=O)OC4CCCC4)c(OC)cc23)cc1` [Example 9, (S)-2-Amino-4-[6-methoxy-4-(4-methoxy-phenoxy)-quinolin-7-yloxy]-butyric acid cyclopentyl ester] was run?
A: 5.30 to 6.00

Q: And the pIC50 (HCT 116 cell line)?
A: < 5.30

Q: And the pIC50 (HUT cell line)?
A: < 5.30

Q: With `COc1cc2c(Oc3ccc(-c4ccccc4)cc3)ccnc2cc1OCC[C@H](N)C(=O)OC1CCCC1` [Example 11, (S)-2-Amino-4-[4-(biphenyl-4-yloxy)-6-methoxy-quinolin-7-yloxy]-butyric acid cyclopentyl ester] as the compound, how does the pIC50 (U937 cell line) read?
A: 5.30 to 6.00

Q: What about the pIC50 (HCT 116 cell line) of the same compound?
A: 5.30 to 6.00

Q: And the pIC50 (HUT cell line)?
A: 5.30 to 6.00

Q: `COc1cc2c(Oc3ccc4sc(C)nc4c3)ccnc2cc1OCC[C@H](N)C(=O)OC1CCCC1` [Example 12, (S)-2-Amino-4-[6-methoxy-4-(2-methyl-benzothiazol-5-yloxy)-quinolin-7-yloxy]-butyric acid cyclopentyl ester] was tested. Which pIC50 (U937 cell line) did it give?
A: 5.30 to 6.00

Q: And the pIC50 (HCT 116 cell line)?
A: < 5.30

Q: And the pIC50 (HUT cell line)?
A: < 5.30

Q: How did the pIC50 (U937 cell line) turn out when `COc1cc2c(Oc3ccc4cccnc4c3)ccnc2cc1OCC[C@H](N)C(=O)OC1CCCC1` [Example 14, (S)-2-Amino-4-[6-methoxy-4-(quinolin-7-yloxy)-quinolin-7-yloxy]-butyric acid cyclopentyl ester] was run?
A: > 6.00

Q: And the pIC50 (HCT 116 cell line)?
A: 5.30 to 6.00

Q: And the pIC50 (HUT cell line)?
A: 5.30 to 6.00

Q: What does the source list for `COc1cc2c(Nc3cnn(CC(=O)Nc4ccccc4)c3)ccnc2cc1OCC[C@H](N)C(=O)OC1CCCC1` [Example 22, (S)-2-Amino-4-[6-methoxy-4-(1-phenylcarbamoylmethyl-1H-pyrazol-4-ylamino)-quinolin-7-yloxy]-butyric acid cyclopentyl ester]?
A: pIC50 (U937 cell line): 5.30 to 6.00; pIC50 (HCT 116 cell line): < 5.30; pIC50 (HUT cell line): < 5.30

Q: What does the source list for `COc1cc2c(Nc3cnn(CC(=O)Nc4cccc(F)c4)c3)ccnc2cc1OCC[C@H](N)C(=O)OC1CCCC1` [Example 24, (S)-2-Amino-4-(4-{1-[(3-fluoro-phenylcarbamoyl)-methyl]-1H-pyrazol-4-ylamino}-6-methoxy-quinolin-7-yloxy)-butyric acid cyclopentyl ester]?
A: pIC50 (U937 cell line): < 5.30; pIC50 (HCT 116 cell line): < 5.30; pIC50 (HUT cell line): < 5.30

Q: How did the pIC50 (U937 cell line) turn out when `COc1cc2c(Nc3cnc(NC(=O)c4ccccc4)nc3)ccnc2cc1OCC[C@H](N)C(=O)OC1CCCC1` [Example 25, (S)-2-Amino-4-[4-(2-benzoylamino-pyrimidin-5-ylamino)-6-methoxy-quinolin-7-yloxy]-butyric acid cyclopentyl ester] was run?
A: 5.30 to 6.00

Q: What about the pIC50 (HCT 116 cell line) of the same compound?
A: 5.30 to 6.00

Q: And the pIC50 (HUT cell line)?
A: 5.30 to 6.00

Q: What does the source list for `COc1cc2c(Nc3cnc(NC(=O)c4ccccc4)nc3)ncnc2cc1OCC[C@H](N)C(=O)OC1CCCC1` [Example 31, (S)-2-Amino-4-[4-(2-benzoylamino-pyrimidin-5-ylamino)-6-methoxy-quinazolin-7-yloxy]-butyric acid cyclopentyl ester]?
A: pIC50 (U937 cell line): < 5.30; pIC50 (HCT 116 cell line): < 5.30; pIC50 (HUT cell line): < 5.30

Q: With `COc1cc2c(Nc3ccc(NC(=O)c4ccccc4)cc3)c(Br)cnc2cc1OCC[C@H](N)C(=O)OC1CCCC1` [Example 33, Dihydrochloride] as the compound, how does the pIC50 (U937 cell line) read?
A: 5.30 to 6.00

Q: What about the pIC50 (HCT 116 cell line) of the same compound?
A: < 5.30

Q: And the pIC50 (HUT cell line)?
A: 5.30 to 6.00

Q: `COc1cc2c(Oc3ccc(NC(=O)c4ccccc4)cc3)ccnc2cc1OCC[C@H](NCC(C)C)C(=O)OC1CCCC1` [Example 37, (S)-4-[4-(4-Benzoylamino-phenoxy)-6-methoxy-quinolin-7-yloxy]-2-isobutylamino-butyric acid cyclopentyl ester] was tested. Which pIC50 (U937 cell line) did it give?
A: > 6.00

Q: What about the pIC50 (HCT 116 cell line) of the same compound?
A: 5.30 to 6.00

Q: And the pIC50 (HUT cell line)?
A: 5.30 to 6.00

Q: `CCN[C@@H](CCOc1cc2nccc(Oc3ccc(NC(=O)c4ccccc4)cc3)c2cc1OC)C(=O)OC1CCCC1` [Example 38, (S)-4-[4-(4-Benzoylamino-phenoxy)-6-methoxy-quinolin-7-yloxy]-2-ethylamino-butyric acid cyclopentyl ester] was tested. Which pIC50 (U937 cell line) did it give?
A: > 6.00

Q: What about the pIC50 (HCT 116 cell line) of the same compound?
A: 5.30 to 6.00

Q: And the pIC50 (HUT cell line)?
A: 5.30 to 6.00

Q: With `COc1cc2c(Oc3ccc(NC(=O)c4ccccc4)cc3)ccnc2cc1OCC[C@H](NC1CCCCC1)C(=O)OC1CCCC1` [Example 39, (S)-4-[4-(4-Benzoylamino-phenoxy)-6-methoxy-quinolin-7-yloxy]-2-cyclohexylamino-butyric acid cyclopentyl ester] as the compound, how does the pIC50 (U937 cell line) read?
A: 5.30 to 6.00

Q: What about the pIC50 (HCT 116 cell line) of the same compound?
A: < 5.30

Q: What about the pIC50 (HUT cell line) of the same compound?
A: < 5.30

Q: With `COc1cc2c(Oc3ccc(NC(=O)c4ccccc4)cc3)ccnc2cc1OCC[C@H](NCc1ccccc1)C(=O)OC1CCCC1` [Example 40, (S)-4-[4-(4-Benzoylamino-phenoxy)-6-methoxy-quinolin-7-yloxy]-2-benzylamino-butyric acid cyclopentyl ester] as the compound, how does the pIC50 (U937 cell line) read?
A: > 6.00

Q: And the pIC50 (HCT 116 cell line)?
A: 5.30 to 6.00

Q: And the pIC50 (HUT cell line)?
A: 5.30 to 6.00

Q: `CCN(CC)[C@@H](CCOc1cc2nccc(Oc3ccc(NC(=O)c4ccccc4)cc3)c2cc1OC)C(=O)OC1CCCC1` [Example 41, (S)-4-[4-(4-Benzoylamino-phenoxy)-6-methoxy-quinolin-7-yloxy]-2-diethylamino-butyric acid cyclopentyl ester] was tested. Which pIC50 (U937 cell line) did it give?
A: 5.30 to 6.00

Q: What about the pIC50 (HCT 116 cell line) of the same compound?
A: 5.30 to 6.00

Q: What about the pIC50 (HUT cell line) of the same compound?
A: 5.30 to 6.00

Q: How did the pIC50 (U937 cell line) turn out when `COc1cc2c(Oc3ccc(NC(=O)c4ccccc4)cc3)ccnc2cc1OCC[C@H](NC(=O)c1cccs1)C(=O)OC1CCCC1` [Example 44, (S)-4-[4-(4-Benzoylamino-phenoxy)-6-methoxy-quinolin-7-yloxy]-2-[(thiophene-2-carbonyl)-amino]-butyric acid cyclopentyl ester] was run?
A: > 6.00

Q: And the pIC50 (HCT 116 cell line)?
A: < 5.30

Q: And the pIC50 (HUT cell line)?
A: 5.30 to 6.00

Q: What does the source list for `COc1cccc(CC(=O)N[C@@H](CCOc2cc3nccc(Oc4ccc(NC(=O)c5ccccc5)cc4)c3cc2OC)C(=O)OC2CCCC2)c1` [Example 45, (S)-4-[4-(4-Benzoylamino-phenoxy)-6-methoxy-quinolin-7-yloxy]-2-[2-(3-methoxy-phenyl)-acetylamino]-butyric acid cyclopentyl ester]?
A: pIC50 (U937 cell line): > 6.00; pIC50 (HCT 116 cell line): 5.30 to 6.00; pIC50 (HUT cell line): > 6.00

Q: How did the pIC50 (U937 cell line) turn out when `COc1cc2c(Oc3ccc(NC(=O)c4ccccc4)cc3)ccnc2cc1OCC[C@H](N)C(=O)OC1CCC(C)C1` (stereo partly drawn) [Example 46, (S)-2-Amino-4-[4-(4-benzoylamino-phenoxy)-6-methoxy-quinolin-7-yloxy]-butyric acid 3-methyl-cyclopentyl ester] was run?
A: > 6.00

Q: What about the pIC50 (HCT 116 cell line) of the same compound?
A: > 6.00

Q: What about the pIC50 (HUT cell line) of the same compound?
A: > 6.00

Q: How did the pIC50 (U937 cell line) turn out when `COc1cc2c(Oc3ccc(NC(=O)c4ccccc4)cc3)ccnc2cc1OCC[C@H](N)C(=O)OC12CCC(CC1)C2` [Example 47, (S)-2-Amino-4-[4-(4-benzoylamino-phenoxy)-6-methoxy-quinolin-7-yloxy]-butyric acid bicyclo[2.2.1]hept-1-yl ester] was run?
A: > 6.00

Q: And the pIC50 (HCT 116 cell line)?
A: > 6.00

Q: What about the pIC50 (HUT cell line) of the same compound?
A: > 6.00

Q: Which results are given for `COc1cc2c(Oc3ccc(NC(=O)c4ccccc4)cc3)ccnc2cc1OCC[C@H](N)C(=O)OC1CCCCC1` [Example 48, (S)-2-Amino-4-[4-(4-benzoylamino-phenoxy)-6-methoxyquinolin-7-yloxy]-butyric acid cyclohexyl ester]?
A: pIC50 (U937 cell line): > 6.00; pIC50 (HCT 116 cell line): > 6.00; pIC50 (HUT cell line): > 6.00

Q: With `COc1cc2c(Oc3ccc(NC(=O)c4ccccc4)cc3)ccnc2cc1OCC[C@H](N)C(=O)OC1CCCC1C` (stereo partly drawn) [Example 49, (S)-2-Amino-4-[4-(4-benzoylamino-phenoxy)-6-methoxy-quinolin-7-yloxy]-butyric acid 2-methyl-cyclopentyl ester] as the compound, how does the pIC50 (U937 cell line) read?
A: > 6.00

Q: And the pIC50 (HCT 116 cell line)?
A: > 6.00

Q: And the pIC50 (HUT cell line)?
A: > 6.00

Q: `CCOC(=O)[C@@H](N)CCOc1cc2nccc(Oc3ccc(NC(=O)c4ccccc4)cc3)c2cc1OC` [Example 51, (S)-2-Amino-4-[4-(4-benzoylamino-phenoxy)-6-methoxy-quinolin-7-yloxy]-butyric acid Ethyl ester] was tested. Which pIC50 (U937 cell line) did it give?
A: > 6.00

Q: And the pIC50 (HCT 116 cell line)?
A: > 6.00

Q: And the pIC50 (HUT cell line)?
A: > 6.00

Q: `COc1cc2c(Oc3ccc(NC(=O)c4ccccc4)cc3)ccnc2cc1OCC[C@H](N)C(=O)OCc1ccccc1` [Example 52, (S)-2-Amino-4-[4-(4-benzoylamino-phenoxy)-6-methoxy-quinolin-7-yloxy]-butyric acid benzyl ester] was tested. Which pIC50 (U937 cell line) did it give?
A: > 6.00

Q: And the pIC50 (HCT 116 cell line)?
A: > 6.00

Q: What about the pIC50 (HUT cell line) of the same compound?
A: > 6.00

Q: Which results are given for `COc1cc2c(Oc3ccc(NC(=O)c4ccccc4F)cc3)ccnc2cc1OCC[C@H](N)C(=O)OC1CCCC1` [Example 61, (S)-2-Amino-4-{4-[4-(2-fluoro-benzoylamino)-phenoxy]-6-methoxy-quinolin-7-yloxy}-butyric acid cyclopentyl ester]?
A: pIC50 (U937 cell line): > 6.00; pIC50 (HCT 116 cell line): > 6.00; pIC50 (HUT cell line): > 6.00

Q: Which results are given for `COc1cc2c(Oc3ccc(NC(=O)c4ccc(F)cc4)cc3)ccnc2cc1OCC[C@H](N)C(=O)OC1CCCC1` [Example 63, (S)-2-Amino-4-{4-[4-(4-fluoro-benzoylamino)-phenoxy]-6-methoxy-quinolin-7-yloxy}-butyric acid cyclopentyl ester]?
A: pIC50 (U937 cell line): > 6.00; pIC50 (HCT 116 cell line): > 6.00; pIC50 (HUT cell line): > 6.00
